Results as given in patent publication US7649093B2, “Naphthalene compounds as selective estrogen receptor modulators” (Glaxo Smith Kline LLC, priority 2004, dated 2010).

Row | Structure (SMILES) | melting point [°C]
1 | Cc1cc2cc(O)ccc2c(Oc2ccc(/C=C/C(=O)O)cc2)c1-c1ccc(O)cc1 [Example 10, (2E)-3-(4-{[6-Hydroxy-2-(4-hydroxyphenyl)-3-methyl-1-naphthalenyl]oxy}phenyl)-2-propenoic acid] | 162 to 164
2 | CCc1cc2cc(O)ccc2c(Oc2ccc(/C=C/C(=O)N3CCN(C)CC3)cc2)c1-c1ccccc1 [Example 12, 7-Ethyl-5-({4-[(1E)-3-(4-methyl-1-piperazinyl)-3-oxo-1-propen-1-yl]phenyl}oxy)-6-phenyl-2-naphthalenol] | 195 to 196
3 | Cc1cc2ccccc2c(Oc2ccc(/C=C/C(=O)O)cc2)c1-c1ccccc1 [Example 15, (2E)-3-{4-[(3-Methyl-2-phenyl-1-naphthalenyl)oxy]phenyl}-2-propenoic acid] | 224 to 225
4 | CCCCc1cc2ccccc2c(Oc2ccc(/C=C/C(=O)O)cc2)c1-c1ccc(O)cc1 | 107 to 109
5 | CC(C)c1cc2cc(O)ccc2c(Oc2ccc(/C=C/C(=O)O)cc2)c1-c1ccccc1 [Example 13, (2E)-3-(4-{[6-Hydroxy-3-(1-methylethyl)-2-phenyl-1-naphthalenyl]oxy}phenyl)-2-propenoic acid] | 198 to 199
6 | CCCCCCCCc1cc2cc(O)ccc2c(Oc2ccc(/C=C/C(=O)O)cc2)c1-c1ccccc1 [Example 29, (2E)-3-{4-[(6-Hydroxy-3-octyl-2-phenyl-1-naphthalenyl)oxy]phenyl}-2-propenoic acid] | 163 to 164
7 | O=C(O)/C=C/c1ccc(Oc2c(-c3ccccc3)c(C(F)(F)F)cc3ccccc23)cc1 [Example 27, (2E)-3-(4-{[2-Phenyl-3-(trifluoromethyl)-1-naphthalenyl]oxy}phenyl)-2-propenoic acid] | 210 to 211
8 | COCc1cc2ccccc2c(Oc2ccc(/C=C/C(=O)O)cc2)c1-c1ccccc1 | 76 to 79
9 | O=C(O)/C=C/c1ccc(Oc2c(-c3ccccc3)c(C3CC3)cc3cc(O)ccc23)cc1 [Example 22, (2E)-3-{4-[(3-Cyclopropyl-6-hydroxy-2-phenyl-1-naphthalenyl)oxy]phenyl}-2-propenoic acid] | 242 to 243
10 | CCCCc1cc2ccccc2c(Oc2ccc(/C=C/C(=O)O)cc2)c1-c1ccc(F)cc1 [Example 24, (2E)-3-(4-{[3-Butyl-2-(4-fluorophenyl)-1-naphthalenyl]oxy}phenyl)-2-propenoic acid] | 169 to 170
11 | O=C(O)c1ccc(Oc2c(-c3ccc(O)cc3)c(C(F)(F)F)cc3ccccc23)cc1 [Example 28, 4-{[2-(4-Hydroxyphenyl)-3-(trifluoromethyl)-1-naphthalenyl]oxy}benzoic acid] | 244 to 245

Now from value to compound:

Row | melting point [°C] | Structure (SMILES)
12 | 118 to 120 | CCCc1cc2cc(O)c(F)cc2c(Oc2ccc(/C=C/C(=O)O)cc2)c1-c1ccccc1 [Example 20, (2E)-3-{4-[(7-Fluoro-6-hydroxy-2-phenyl-3-propyl-1-naphthalenyl)oxy]phenyl}-2-propenoic acid]
13 | 120 to 122 | CCCc1cc2cc(O)ccc2c(Oc2ccc(/C=C/C(=O)O)cc2)c1-c1ccccc1 [Example 16, (2E)-3-{4-[(6-Hydroxy-2-phenyl-3-propyl-1-naphthalenyl)oxy]phenyl}-2-propenoic acid]
14 | 126 to 128 | CC(C)Cc1cc2cc(O)ccc2c(Oc2ccc(/C=C/C(=O)O)cc2)c1-c1ccccc1 [Example 17, (2E)-3-(4-{[6-Hydroxy-3-(2-methylpropyl)-2-phenyl-1-naphthalenyl]oxy}phenyl)-2-propenoic acid]
15 | 160 to 161 | CCCCc1cc2ccccc2c(Oc2ccc(/C=C/C(=O)O)cc2)c1-c1ccccc1 [Example 26, (2E)-3-{4-[(3-Butyl-2-phenyl-1-naphthalenyl)oxy]phenyl}-2-propenoic acid]
16 | 121 to 124 | CCCc1cc2cc(O)c(F)cc2c(Oc2ccc(/C=C/C(N)=O)cc2)c1-c1ccccc1 [Example 25, (2E)-3-{4-[(7-Fluoro-6-hydroxy-2-phenyl-3-propyl-1-naphthalenyl)oxy]phenyl}-2-propenamide]
17 | 128 to 130 | CCCCc1cc2cc(O)ccc2c(Oc2ccc(/C=C/C(=O)O)cc2)c1-c1ccccc1 [Example 14, (2E)-3-{4-[(3-Butyl-6-hydroxy-2-phenyl-1-naphthalenyl)oxy]phenyl}-2-propenoic acid]
18 | 188 to 190 | CCc1cc2cc(O)ccc2c(Oc2ccc(/C=C/C(=O)O)cc2)c1-c1ccccc1 [Example 11, (2E)-3-{4-[(3-Ethyl-6-hydroxy-2-phenyl-1-naphthalenyl)oxy]phenyl}-2-propenoic acid]
19 | 118 to 120 | O=C(O)/C=C/c1ccc(Oc2c(-c3ccccc3)c(CCC(F)(F)F)cc3cc(O)ccc23)cc1 [Example 19, (2E)-3-(4-{[6-Hydroxy-2-phenyl-3-(3,3,3-trifluoropropyl)-1-naphthalenyl]oxy}phenyl)-2-propenoic acid]
20 | 110 to 113 | CCCCCc1cc2cc(O)ccc2c(Oc2ccc(/C=C/C(=O)O)cc2)c1-c1ccccc1 [Example 18, (2E)-3-{4-[(6-Hydroxy-3-pentyl-2-phenyl-1-naphthalenyl)oxy]phenyl}-2-propenoic acid]
